Series [1] in a line: Cytotoxicity (MTT test) on Episkin reconstructed skin after applying compositions. It counts as cell-based, human. The note with it: human; composition A + 0.5% (w/V) 5-n-octanoylsalicylic acid, no compound of formula (I); 150 mg/cm^2, 18 hours, 37° C./5% CO2; read-out: % of cell viability. The procedure:
(§1) The Episkin system is a model of human epidermis reconstituted in vitro, which was manufactured by the company Episkin. The epidermis contained only one cell type: keratinocytes. The keratinocytes were seeded onto a dermis equivalent which was composed of various types of collagen.
(§2) After a period of proliferation of the keratinocytes immersed in the culture medium, the system was raised up to the air/liquid interface.
(§3) The assignee hereof has studied the cytotoxicity of the keratinocytes (3-(4,5-dimethylthiazol-2-yl)-2,5-diphenyltetrazolium bromide test) after applying to this reconstructed skin model various compositions in a proportion of 150 mg/cm^2, and maintaining same in an incubator at 37° C./5% CO2 for a period of 18 hours. Each composition was tested on two epidermides of 1.13 cm^2.
(§4) The basic composition A was:
(§5) The other compositions tested corresponded to this composition A to which 5-n-octanoylsalicylic acid, alone or in admixture with a compound of formula (I) according to the invention, was added.
(§6) The measurement of cell viability was carried out immediately after rinsing of the compositions with phosphate buffered saline (PBS).

Series [2] relates to keratinocytes of Episkin human epidermis reconstituted in vitro. Described as above. It counts as cell-based. The note with it: 0.3% (w/V) 5-n-octanoylsalicylic acid added to composition A. The procedure:
as §1, §2, §3, §4, §5, §6

Take `CCCCCCCC(=O)c1ccc(O)c(C(=O)O)c1` [5-n-octanoylsalicylic acid]: the viability at 18 h, 0.5 % (w/V) in series [1] came out at 7.8%. The “cytotoxicity of the composition” value in series [2] was “cytotoxic”.

The values above are taken from patent US6521222B1, “Inorganic/organic complexes for reducing skin irritation” (Societe L'Oreal S.A., priority 1999, dated 2003).
